Three molecules from patent US11739162B2, “Side chain modified peptoids useful as structure-stabilizing coatings for biomaterials” (Brookhaven Science Associates, LLC, priority 2019, dated 2023) can be followed below.

Series [1] relates to 15-bp dsDNA. Kind of series: Real-time SYBR Green I (SG) fluorescence assay of duplex DNA (dsDNA). Format: binding. Conditions: dsDNA/peptoid complexes. How it is done: A15-bp dsDNA was designed with a sequence of 5′-[…]-3′ (SEQ ID NO: 124) with a complementary sequence of 5′-[…]-3′ (SEQ ID NO: 125). The dsDNA (500 μM) was formed in PBS (1×) buffer and cooled from 70° C. to room temperature over 11 h. Next, the dsDNA (100 nM) solution was mixed with different peptoid solutions at varied concentrations in PBS overnight at room temperature. Prior to measuring fluorescence, SG (1×) was added to the dsDNA/peptoid mixtures for 2 h at room temperature. The fluorescence signal was recorded from 37° C. to 85° C. at a step of 0.03° C./sec by LightCycler 480. The concentrations of only peptoids in solution were the same as those in the N/P of 8, which were 3.43 μM for PE1, PE3, PE4, PE5, and 1.85 μM for PE2, respectively.

Series [2] relates to deoxyribonuclease I (DN). The series is described as follows: Nuclease degradation assays (AGE, TEM, DLS). Conditions: DN 15 μg/mL, 30 min, 37° C., N/P 0.5.
Protocol: The samples were incubated at 37° C. for 30 min at 650 rpm on a thermal cycler (Eppendorf) and characterized using AGE and negative-stained TEM imaging.
Series [3] relates to trypsin. Kind of series: Fluorescence assay for tryptic digestion of BSA. The conditions noted are these: trypsin 50 nM, 37° C. Format: biochemical. How it is done: First, NHS-fluorescein (240 μM) and NHS-PEG-azide (60 μM) was mixed with BSA (10 μM) in PBS (1×) buffer for 3 h at room temperature. The solution was purified 8 times with PBS using a 50 kDa filter and centrifuged at 3000 rcf and at 4° C. Next, the DBCO-modified single-stranded DNA (ssHy, 5′-[…]/3DBCO/, 250 μM) (SEQ ID NO: 1) was mixed with the BSA solution (10 μM) overnight (˜12 h) at 4° C. The solution was purified 8 times with PBS using a 50 kDa filter and centrifuged at 3000 rcf at 4° C. Finally, the surface-modified BSA (200 nM) was added to the OCs (40 nM) and the solution was cooled down from 45° C. to room temperature over a time course of 60 h. The solution was purified 2 times with TAE (1×) buffer containing 12.5 mM MgCl2 using a 100 kDa filter and centrifuged at 400 rcf and at 4° C.
(1) The fluorescein-modified BSA (80 nM) solution without OCs was incubated at 37° C. in the presence or absence of trypsin (50 nM) overnight ˜12 h prior to fluorescence measurement. Fluorescence spectra were measured with excitation and emission wavelengths of 490 nm and 510-750 nm, respectively and a step size of 2 nm. […] The fluorescence kinetics were measured at λex and λem of 490 nm and 525 nm, respectively and time interval of 3 min. Fluorescence spectra were measured after 15 h at excitation and emission wavelengths of 490 nm and 510-800 nm, respectively and a step size of 2 nm.

For series [4], the system named is octahedra-shaped DNA origamis (OCs). The series is described as follows: Negative-stained TEM imaging of peptoid-coated OCs. The class given is physicochemical. Conditions: N/P 0.5, 0.25, 0.1; TAE 12.5 mM MgCl2. As for the experimental part: Preparation of peptoid-coated OCs. The synthesized peptoids were dissolved in deionized water at a concentration of 10 mM and stored at 4° C.
Negative-stained TEM imaging. […] In brief, […] of the peptoid-coated OC (5-10 nM) solution was dropped on a carbon film for 1-3 min and the residual liquid was removed with a piece of filter paper. After that, the grid was washed with […] of deionized water followed by staining with […] of 2 wt % uranyl acetate for 15 sec. The excess liquid was removed with filter papers. TEM imaging was performed on a JEOL 1400 TEM with an acceleration voltage of 120 kV.

Turning to `COCCOCCOCCN(CC(N)=O)C(=O)CN(CCOCCOCCOC)C(=O)CN(CCOCCOCCOC)C(=O)CN(CCOCCOCCOC)C(=O)CN(CCOCCOCCOC)C(=O)CN(CCOCCOCCOC)C(=O)CN(CCN)C(=O)CN(CCN)C(=O)CN(CCN)C(=O)CN(CCN)C(=O)CN(CCN)C(=O)CNCCN` [PE4, Nae6-Nte6 block], in series [1], the “relative performance in raising the Tm of the dsDNA (ranking)” value is “Tm (dsDNA/PE2)>Tm (dsDNA/PE1)>Tm (dsDNA/PE4)”. Also, the “OC structure after incubation with DN (TEM)” value in series [2] is “some extents of capability to preserve the origami structure”.
Regarding “fluorescein labeled BSA: bovine serum albumin modified with fluorescein, trypsin substrate [reference compound]”, the “fluorescence enhancement of fluorescein labeled BSA in the presence of trypsin” value in series [3] was found to be 85%.
On to `COCCOCCOCCN(CC(N)=O)C(=O)CN(CCOC)C(=O)CN(CCOCCOCCOC)C(=O)CN(CCN)C(=O)CN(CCOCCOCCOC)C(=O)CN(CCOC)C(=O)CN(CCOCCOCCOC)C(=O)CN(CCN)C(=O)CN(CCOCCOCCOC)C(=O)CN(CCOC)C(=O)CN(CCOCCOCCOC)C(=O)CN(CCN)C(=O)CN(CCOCCOCCOC)C(=O)CN(CCOC)C(=O)CN(CCOCCOCCOC)C(=O)CN(CCN)C(=O)CN(CCOCCOCCOC)C(=O)CN(CCOC)C(=O)CN(CCOCCOCCOC)C(=O)CN(CCN)C(=O)CN(CCOCCOCCOC)C(=O)CN(CCOC)C(=O)CN(CCOCCOCCOC)C(=O)CNCCN` [PE3, Nae6-Nte12 brush], for which the “relative performance in raising the Tm of the dsDNA (ranking)” value in series [1] is reported as “Tm (dsDNA/PE3)>Tm (dsDNA/PE5)”. The “OC structure after incubation with DN (TEM)” value in series [2] is “some extents of capability to preserve the origami structure”. Besides, the “morphology / aggregation of peptoid-coated OCs (TEM)” value in series [4] is given as “less aggregation than PE1”.
